From ChEMBL document CHEMBL4376804, “Review of Transient Receptor Potential Canonical (TRPC5) Channel Modulators and Diseases” (J Med Chem, 2019)
pIC50: −log10 of the molar value.

Tests used:
[1] = target: T1, Short transient receptor potential channel 5 (Mus musculus, UniProt Q9QX29); assay: Inhibition of mouse TRPC5 by FLIPR assay
T1 sequence (Q9QX29 whole entry): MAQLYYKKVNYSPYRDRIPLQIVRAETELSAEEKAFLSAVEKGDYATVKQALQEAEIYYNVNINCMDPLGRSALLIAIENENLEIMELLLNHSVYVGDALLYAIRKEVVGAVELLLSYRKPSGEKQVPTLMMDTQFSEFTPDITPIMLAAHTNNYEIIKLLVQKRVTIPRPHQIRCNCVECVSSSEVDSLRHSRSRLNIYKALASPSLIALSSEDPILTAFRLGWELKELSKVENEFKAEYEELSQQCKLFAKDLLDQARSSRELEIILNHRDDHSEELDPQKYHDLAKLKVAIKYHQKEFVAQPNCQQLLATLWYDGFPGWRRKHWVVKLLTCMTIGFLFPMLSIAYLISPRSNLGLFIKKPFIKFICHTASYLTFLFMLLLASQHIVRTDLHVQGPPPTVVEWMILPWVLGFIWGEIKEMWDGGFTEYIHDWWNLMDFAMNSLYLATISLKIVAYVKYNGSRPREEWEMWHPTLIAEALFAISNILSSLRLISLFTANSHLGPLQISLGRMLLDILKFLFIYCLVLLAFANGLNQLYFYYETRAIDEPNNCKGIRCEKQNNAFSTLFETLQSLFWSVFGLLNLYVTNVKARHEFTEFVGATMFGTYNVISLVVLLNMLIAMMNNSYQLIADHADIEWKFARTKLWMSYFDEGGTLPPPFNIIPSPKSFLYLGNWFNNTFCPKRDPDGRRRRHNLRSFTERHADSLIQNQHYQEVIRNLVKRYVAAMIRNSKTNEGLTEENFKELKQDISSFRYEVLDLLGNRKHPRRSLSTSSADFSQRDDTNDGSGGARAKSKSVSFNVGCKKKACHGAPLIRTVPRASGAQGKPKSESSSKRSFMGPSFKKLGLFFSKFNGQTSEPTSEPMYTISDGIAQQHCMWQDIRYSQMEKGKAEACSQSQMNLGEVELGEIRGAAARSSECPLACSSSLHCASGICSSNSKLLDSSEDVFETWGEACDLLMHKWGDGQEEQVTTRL

[2] = target: T2, Short transient receptor potential channel 3 (Homo sapiens, UniProt Q13507); assay: Inhibition of YFP-tagged human TRPC3 expressed in thapsigargin treated HEK293 cells assessed as reduction in amix-induced calcium level by fluo-4 dye based fluorescence assay; format: cell-based
T2 sequence (Q13507 whole entry): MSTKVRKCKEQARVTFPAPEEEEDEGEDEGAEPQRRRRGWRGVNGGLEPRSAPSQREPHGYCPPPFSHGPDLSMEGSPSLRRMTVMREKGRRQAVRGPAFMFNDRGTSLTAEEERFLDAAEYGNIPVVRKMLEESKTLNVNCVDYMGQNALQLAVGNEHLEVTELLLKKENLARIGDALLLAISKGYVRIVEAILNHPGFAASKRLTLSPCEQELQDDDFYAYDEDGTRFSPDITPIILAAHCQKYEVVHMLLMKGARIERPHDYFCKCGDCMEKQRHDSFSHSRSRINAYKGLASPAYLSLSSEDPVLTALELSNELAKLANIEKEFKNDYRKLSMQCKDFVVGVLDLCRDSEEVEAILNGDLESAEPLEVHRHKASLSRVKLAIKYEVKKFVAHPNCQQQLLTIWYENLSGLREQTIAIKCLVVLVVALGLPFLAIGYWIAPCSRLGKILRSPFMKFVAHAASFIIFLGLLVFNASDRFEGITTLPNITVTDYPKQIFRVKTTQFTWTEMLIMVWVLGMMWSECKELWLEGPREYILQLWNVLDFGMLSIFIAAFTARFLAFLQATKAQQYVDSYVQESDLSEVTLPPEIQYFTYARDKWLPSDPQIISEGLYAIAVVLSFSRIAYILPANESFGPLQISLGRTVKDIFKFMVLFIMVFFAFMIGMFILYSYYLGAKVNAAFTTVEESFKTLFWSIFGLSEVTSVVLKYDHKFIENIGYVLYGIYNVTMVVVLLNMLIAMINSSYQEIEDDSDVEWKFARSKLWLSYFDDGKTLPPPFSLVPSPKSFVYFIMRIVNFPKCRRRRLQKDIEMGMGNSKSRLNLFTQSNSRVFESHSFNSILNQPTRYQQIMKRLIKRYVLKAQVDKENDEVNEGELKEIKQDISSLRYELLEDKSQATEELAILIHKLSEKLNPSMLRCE

[3] = target: Short transient receptor potential channel 7 (Mus musculus, UniProt Q9WVC5); assay: Inhibition of YFP-tagged mouse TRPC7 expressed in thapsigargin treated HEK293 cells assessed as reduction in amix-induced calcium level by fluo-4 dye based fluorescence assay; format: cell-based
Sequence of Short transient receptor potential channel 7 (Q9WVC5 whole entry): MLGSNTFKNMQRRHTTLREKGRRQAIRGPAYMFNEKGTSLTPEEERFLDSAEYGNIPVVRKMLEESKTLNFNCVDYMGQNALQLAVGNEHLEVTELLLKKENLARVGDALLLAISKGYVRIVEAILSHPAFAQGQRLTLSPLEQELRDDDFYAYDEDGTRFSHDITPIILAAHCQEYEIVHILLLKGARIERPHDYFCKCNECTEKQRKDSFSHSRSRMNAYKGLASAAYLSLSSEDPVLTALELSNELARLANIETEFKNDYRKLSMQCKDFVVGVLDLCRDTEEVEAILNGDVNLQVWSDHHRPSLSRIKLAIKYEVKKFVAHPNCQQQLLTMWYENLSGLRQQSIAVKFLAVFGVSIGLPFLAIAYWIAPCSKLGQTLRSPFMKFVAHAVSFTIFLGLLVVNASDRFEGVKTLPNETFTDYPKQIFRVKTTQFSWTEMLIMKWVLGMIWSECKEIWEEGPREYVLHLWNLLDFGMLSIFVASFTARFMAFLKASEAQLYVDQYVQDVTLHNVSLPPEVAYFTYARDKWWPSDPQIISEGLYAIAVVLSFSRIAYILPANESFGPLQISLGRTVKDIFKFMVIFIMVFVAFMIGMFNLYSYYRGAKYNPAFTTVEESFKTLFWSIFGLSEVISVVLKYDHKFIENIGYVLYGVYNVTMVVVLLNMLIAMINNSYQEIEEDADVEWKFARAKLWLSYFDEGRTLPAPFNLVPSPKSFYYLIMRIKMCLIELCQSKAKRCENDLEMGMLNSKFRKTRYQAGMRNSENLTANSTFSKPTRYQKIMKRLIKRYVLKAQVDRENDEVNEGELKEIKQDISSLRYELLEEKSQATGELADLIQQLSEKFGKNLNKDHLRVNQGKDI

[4] = target: Transient receptor potential cation channel subfamily V member 1 (Rattus norvegicus, UniProt O35433); assay: Inhibition of CFP-tagged rat TRPV1 expressed in HEK293 cells assessed as reduction in calcium level by fluo-4 dye based fluorescence assay; format: cell-based
Sequence of Transient receptor potential cation channel subfamily V member 1 (O35433 whole entry): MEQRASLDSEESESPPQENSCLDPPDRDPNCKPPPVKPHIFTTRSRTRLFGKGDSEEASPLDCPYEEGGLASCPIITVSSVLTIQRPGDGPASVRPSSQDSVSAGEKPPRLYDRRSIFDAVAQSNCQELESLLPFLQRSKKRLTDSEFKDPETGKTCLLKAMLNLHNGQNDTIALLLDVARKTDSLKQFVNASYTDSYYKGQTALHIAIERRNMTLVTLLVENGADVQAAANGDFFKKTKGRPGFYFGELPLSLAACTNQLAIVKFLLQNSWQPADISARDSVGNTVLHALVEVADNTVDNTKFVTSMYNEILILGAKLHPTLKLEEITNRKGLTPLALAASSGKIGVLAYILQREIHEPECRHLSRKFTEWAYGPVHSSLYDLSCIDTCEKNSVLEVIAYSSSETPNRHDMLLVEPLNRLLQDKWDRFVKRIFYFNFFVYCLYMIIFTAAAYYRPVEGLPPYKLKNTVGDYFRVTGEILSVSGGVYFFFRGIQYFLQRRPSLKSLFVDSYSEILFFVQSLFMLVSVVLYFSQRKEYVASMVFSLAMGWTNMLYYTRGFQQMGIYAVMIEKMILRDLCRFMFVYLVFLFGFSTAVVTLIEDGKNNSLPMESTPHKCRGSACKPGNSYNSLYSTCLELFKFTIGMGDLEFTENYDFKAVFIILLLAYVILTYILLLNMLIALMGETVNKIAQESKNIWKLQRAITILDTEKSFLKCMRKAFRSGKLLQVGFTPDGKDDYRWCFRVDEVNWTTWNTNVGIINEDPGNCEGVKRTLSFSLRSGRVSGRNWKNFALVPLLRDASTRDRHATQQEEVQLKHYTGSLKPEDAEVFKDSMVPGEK

[5] = Selectivity ratio of IC50 for YFP-tagged human TRPC3 expressed in thapsigargin treated HEK293 cells to IC50 for mouse TRPC5 expressed in thapsigargin treated HEK293/TREx cells; format: cell-based

Compound	pIC50 [1]	pIC50 [2]	pIC50 [3]	pIC50 [4]	Ratio IC50 [5]
N#Cc1ccc(O[C@@H]2c3ccccc3C[C@H]2N2CCC[C@@H](N)C2)c(Cl)c1	< 5.00	–	–	–	–
Clc1ccc(Cn2c(CN3CCCC3)nc3ccccc32)cc1 [CLEMIZOLE]	–	5.04	4.58	< 4.70	10
